One assay relates to HSV-1 (strain 377, TK+). Nature of the assay: Antiviral activity against HSV-1. Format: cell-based. The method, then: (§1) D-2'-CdG and L-2'-CdG were tested, alongside D,L-2'-CdG, against both HSV-1 (strain 377, TK+; obtained from Dr. Earl Kern, University of Alabama) and HSV-2 (strain MS, TK+; also obtained from Dr. Earl Kern). In these tests (Table 5), Ara-A and acyclovir (ACV) were the positive control drugs. In four tests vs. HSV-1, the antiviral activity (VR) and potency (MIC50) of D-2'-CdG were approximately the same as those of racemic 2-CdG. L-2'-CdG was only modestly active.

Another assay concerns HSV-2 (strain MS, TK+). Nature of the assay: Antiviral activity against HSV-2. Format: cell-based. The procedure: as §1
These compounds were tested against HSV-2(TK^+). The VR of ACV was somewhat higher than the VR values of D-2'-CdG and D,L-2'-CdG, but the values of MIC50 of the two forms of 2'-CdG were lower. In addition, experiments comparing the antiviral activity D-2'-CdG with acyclovir against HSV-1 in human foreskin fibroblasts have shown an even greater potency, in favor of D-2'-CdG.

Another assay concerns HBV. Nature of the assay: HBV DNA production and replication in 2.2.15 cell cultures. Format: cell-based, Hepatitis B virus (HBV). As to conditions: 100 uM. The procedure:
2'-CdG was tested at three concentrations (50 ng/ml, 500 ng/ml, and 5 ug/ml) against the HBV-producing, human liver cell line, 2.2.15 (Sells et al., J. Virol. 62:2836, 1989). A racemic (D,L) preparation, as well as the purified D and L isomers were tested. For these analyses compounds were tested in duplicate at all concentrations. Ara-AMP and ddG (2'3'-dideoxyguanosine) were used as HBV inhibitory control compounds. […] The nucleoside analog, ddG was used as an additional control compound since ddG has activity against duck hepatitis B virus in chronically infected Peking ducks (Lee et al., Antimicrob. Agents Chemother. 33:336, 1989) and 2'-CdG is also a deoxyguanosine analog.
2.2.15 cells were seeded in 6 well culture plates and grown to confluence over a 10 day period in medium with 5% FBS. Test compounds were then added daily for a continuous 10 day period in medium with 1% dialyzed FBS. […] Compounds were tested, in duplicate cultures, at 3 concentrations covering a 100-fold range. Culture medium (changed daily during the treatment period) was collected and stored for analysis of extracellular (virion) HBV DNA from days 0, 3, 6, and 10 of the treatment period. This allowed for an analysis of the level of HBV virion production during discrete 24 hour intervals and reduced the potential for the buildup of toxic metabolites derived from the test compounds. Treated cells were lysed following the 10th day of treatment for the analysis of intracellular HBV genomic forms. HBV DNA was analyzed in a quantitative manner for (i) overall levels (both extracellular and intracellular DNA) and (ii) the relative rate of HBV replication (intracellular DNA only).
HBV DNA levels were measured by comparison to known amounts of HBV DNA standards applied to every nitrocellulose filter (gel or slot blot) using an AMBIS Beta Scanner. Standard curves, generated by multiple analyses, were used to correlate CPM measurements with relative levels of target HBV DNA. The levels of HBV DNA in each of three classes of intracellular viral genomic forms were individually quantitated: integrated HBV DNA, episomal monomeric genomes and HBV DNA replication intermediates (RI). Integrated HBV DNA was used to normalize the relative amounts of DNA in each lane because the levels of this class of HBV DNA would be expected to remain constant on a per cell basis. The levels of the monomeric HBV genomes and RI were used as an indicator of the relative level of HBV replication.

The subject of the next assay is human CMV. Nature of the assay: In vitro activity against human CMV in human foreskin fibroblast cells. Format: cell-based. The note with it: Human betaherpesvirus 5, read-out: ED50 value (median dose at which 50% antiviral efficacy is observed). The procedure:
The in vitro activity of D-2'-CdG was also compared with the current investigational drug of choice for human CMV, DHPG. These experiments were carried out in human foreskin fibroblast cells.

A further assay concerns the target T1, HSV-1 TK (Human herpesvirus 1, UniProt P0DTH5).
T1 construct: HSV thymidine kinase (HSV TK) was isolated from HELA (BU25) cells infected with the SW148 strain of HSV-1; made in house; host or cells: HeLa (BU25) thymidine-kinase-deficient cells infected with HSV-1 strain S148/SW148
Nature of the assay: Competitive inhibition of [3H]-thymidine phosphorylation by partially purified HSV-1 TK. Format: biochemical. The method, then: The Ki's were determined from a plot of the slope of each line versus the concentration of the competitor (D-, L, or D,L-2'CdG) and are summarized below: TABLE 2

Setting [1] is: 24 hours following 10th day of treatment.

In brackets after ≈: the same amount, converted by molar mass. Several values for one entry are separate records, joined by “and”; a condition that tells them apart may be missing. Equal entries are not always repeated.

T1 sequence (P0DTH5 whole entry): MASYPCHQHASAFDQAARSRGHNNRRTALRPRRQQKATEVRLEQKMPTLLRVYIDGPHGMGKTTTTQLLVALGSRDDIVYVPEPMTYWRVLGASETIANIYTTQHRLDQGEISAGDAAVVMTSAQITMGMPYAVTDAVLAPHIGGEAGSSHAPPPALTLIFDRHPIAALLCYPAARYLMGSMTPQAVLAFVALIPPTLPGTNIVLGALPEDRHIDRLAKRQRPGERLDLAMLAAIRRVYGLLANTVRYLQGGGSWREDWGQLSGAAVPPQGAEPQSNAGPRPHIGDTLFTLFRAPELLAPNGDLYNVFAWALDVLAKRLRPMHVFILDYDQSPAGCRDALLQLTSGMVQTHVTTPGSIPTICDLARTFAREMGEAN

For `Nc1ncnc2c1ncn2[C@@H]1O[C@H](CO)[C@@H](O)[C@@H]1O` [Ara-A, adenosine arabinoside, reference compound], the VR with HSV-1 (strain 377, TK+) (HSV-1, range of tests) is listed as 1.6-2.5; in the assay on HSV-2 (strain MS, TK+) (HSV-2), 1.3. The EC50 is 10 to 34 µg/mL (≈ 37.4 to 127 µM) with HSV-1 (strain 377, TK+) (Human alphaherpesvirus 1, read-out: Mic50) and 50 µg/mL (≈ 187 µM) in the assay on HSV-2 (strain MS, TK+) (Human alphaherpesvirus 2, read-out: Mic50).

For the compound `Nc1nc2c(ncn2[C@H]2CC[C@@H](CO)O2)c(=O)[nH]1` [DDG, 2'3'-dideoxyguanosine, reference compound], in the assay with HBV (setting [1]), the “INTRACELLULAR HBV DNA INTEG.” value was 1.6 PG/UG CELL DNA and 1.7 PG/UG CELL DNA; the “INTRACELLULAR HBV DNA MONO.” value is 0.2 PG/UG CELL DNA and 0.1 PG/UG CELL DNA; the “INTRACELLULAR HBV DNA RI” value was 0.1 PG/UG CELL DNA. Besides, the “HBV DNA IN CULTURE MEDIUM DAY 0” value in the assay with HBV (day 0 of treatment) was 49 pg/mL and 58 pg/mL. Moreover, the “HBV DNA IN CULTURE MEDIUM DAY 3” value in the assay on HBV (day 3) is 35 pg/mL and 41 pg/mL. The “HBV DNA IN CULTURE MEDIUM DAY 10” value in the assay on HBV (day 10) came to 0 pg/mL.

On to `Nc1nc(O)c2ncn(COC(CO)CO)c2n1` [DHPG, dihydroxy propoxymethyl guanine, reference compound], for which, in the assay on human CMV, the EC50 amounted to 0.2 µg/mL (≈ 0.784 µM).

The compound `Nc1nc2c(ncn2[C@H]2C[C@H](O)[C@@H](CO)O2)c(=O)[nH]1` [dGuo, reference compound] yielded a Ki at HSV-1 TK of 10.5 µM.

(Values after EP0684822B1, “CARBOCYCLIC DEOXYGUANOSINE ANALOGS FOR THE TREATMENT OF VIRAL INFECTIONS” (SOUTHERN RESEARCH INSTITUTE, priority 1993, dated 1994).)
